Values quoted from earlier work in US6071923A, “Retinoyloxy aryl-substituted alkylene butyrates useful for the treatment of cancer and other proliferative diseases” (Bar-Ilan University, priority 1997, dated 2000).
Values joined by “and” are separate entries in the source; they are usually repeats but may differ in a detail not shown here. Identical values can stand only once. Like-named read-outs stand apart in the source and are kept apart here.

System: HL-60 cells
[1] = HL-60 human promyelocytic cell line, agent alone, read-out: ED50, induction of differentiation of HL-60 cells, agent alone

EC50 (HL-60 cells, BA combined with about 28 nM RA, read-out: ED50 value for BA in combination with RA) [µM]	SMILES	dose reduction index value (HL-60 cells, BA ED50 alone versus with about 28 nM RA)	EC50 [1]
~75	CCCC(=O)O [BA, Butyric acid]	about 6 fold	444 µM and ~400 µM
–	CC1=C(/C=C/C(C)=C/C=C/C(C)=C/C(=O)O)C(C)(C)CCC1 [RA, retinoic acid]	–	0.13 µM
